Measured values as given in patent US12458024B2, “Compound combination with superior herbicidal activity” (priority 2020, dated 2025).

Key:
Type in all cases: in vivo
Echinocloa crus-galli [1] = assay: Field trial herbicidal action, indaziflam + pelargonic acid, Echinocloa crus-galli
Description: (§1) The following active compounds were tested: • Product PeAc contained 249.96 g a.i./L of pelargonic acid in an EC formulation • Product IAF contained 200 g a.i./L of indaziflam formulated as SC formulation • Product TBA contained 500 g a.i./L of terbutylazine formulated as SC formulation 2. Biological Trials Herbicidal Action (Field Trials)
(§2) The growth stages of the different weed or crop plant species are indicated according to the BBCH monograph “Growth stages of mono- and dicotyledonous plants”, 2nd edition, 2001, ed. Uwe Meier, Federal Biological Research Centre for Agriculture and Forestry (Biologische Bundesanstalt für Land und Forstwirtschaft). The respective BBCH stages are mentioned in brackets for the different weed or crop plant species and indicate the BBCH stage for the majority of the respective weed or crop plant species.
(§3) The dose rates of herbicidal ingredients used in each case are indicated for the respective active ingredient in brackets and refer to the amount of active ingredient per hectare (g a.i./ha).
(§4) • A is the efficacy in % when active compound A is applied at an application rate of a g a.i./ha, • B is the efficacy in % when active compound B is applied at an application rate of b g a.i./ha), • EC is the efficacy in % when the active compounds A and B are applied at application rates of a+b g a.i./ha), respectively, and Then EC=A+B−([…]/100)

Polygonum convolvulus = assay: Field trial herbicidal action, indaziflam + pelargonic acid, Polygonum convolvulus
Description: as §1, §2, §3, §4

Chenopodium album [2] = assay: Field trial herbicidal action, indaziflam + pelargonic acid, Chenopodium album
Description: as §1, §2, §3, §4

Setaria viridis = assay: Field trial herbicidal action, indaziflam + pelargonic acid, Setaria viridis
Description: as §1, §2, §3, §4

Panicum maximum = assay: Field trial herbicidal action, indaziflam + pelargonic acid, Panicum maximum
Description: as §1, §2, §3, §4

Zea mays = assay: Field trial herbicidal action, indaziflam + pelargonic acid, Zea mays
Description: as §1, §2, §3, §4

Abutilon theophrasti = assay: Field trial herbicidal action, indaziflam + pelargonic acid, Abutilon theophrasti
Description: as §1, §2, §3, §4

Echinocloa crus-galli [3] = assay: Field trial herbicidal action, terbuthylazine + pelargonic acid, Echinocloa crus-galli
Description: as §1, §2, §3, §4

Amaranthus retroflexus = assay: Field trial herbicidal action, terbuthylazine + pelargonic acid, Amaranthus retroflexus
Description: as §1, §2, §3, §4

Chenopodium album [4] = assay: Field trial herbicidal action, terbuthylazine + pelargonic acid, Chenopodium album
Description: as §1, §2, §3, §4

Abuthilon theophrasti = assay: Field trial herbicidal action, terbuthylazine + pelargonic acid, Abuthilon theophrasti
Description: as §1, §2, §3, §4

Cc1ccc2c(c1)C(Nc1nc(N)nc(C(C)F)n1)C(C)C2 (mixture of isomers) [Indaziflam, N2-[(1R,2S)-2,3-dihydro-2,6-dimethyl-1H-inden-1-yl]-6-[(1RS)-1-fluoroethyl]-1,3,5-triazine-2,4-diamine]
Herbicidal Activity 13 DAT [%] (EA) (Echinocloa crus-galli [1]; 50 g a.i./ha): 0%
Herbicidal Activity 13 DAT [%] (EA) (Polygonum convolvulus; 50 g a.i./ha): 55%
Herbicidal Activity 13 DAT [%] (EA) (Chenopodium album [2]; 50 g a.i./ha): 20%
Herbicidal Activity 13 DAT [%] (EA) (Setaria viridis; 50 g a.i./ha): 0%
Herbicidal Activity 13 DAT [%] (EA) (Panicum maximum; 50 g a.i./ha): 5%
Herbicidal Activity 13 DAT [%] (EA) (Zea mays; 50 g a.i./ha): 10%
Herbicidal Activity 13 DAT [%] (EA) (Abutilon theophrasti; 10 g a.i./ha): 60%
Herbicidal Activity 13 DAT [%] (EA) (Abutilon theophrasti; 50 g a.i./ha): 92%

CCCCCCCCC(=O)O [Pelargonic acid, nonanoic acid]
Herbicidal Activity 13 DAT [%] (EA) (Echinocloa crus-galli [1]; 6000 g a.i./ha): 0%
Herbicidal Activity 13 DAT [%] (EA) (Echinocloa crus-galli [1]; 16000 g a.i./ha): 25%
Herbicidal Activity 13 DAT [%] (EA) (Polygonum convolvulus; 6000 g a.i./ha): 40%
Herbicidal Activity 14 DAT [%] (EA) (Echinocloa crus-galli [3]; 6000 g a.i./ha): 13%
Herbicidal Activity 14 DAT [%] (EA) (Echinocloa crus-galli [3]; 12000 g a.i./ha): 30%
Herbicidal Activity 14 DAT [%] (EA) (Echinocloa crus-galli [3]; 16000 g a.i./ha): 33%
Herbicidal Activity 13 DAT [%] (EA) (Chenopodium album [2]; 6000 g a.i./ha): 40%
Herbicidal Activity 13 DAT [%] (EA) (Chenopodium album [2]; 16000 g a.i./ha): 80%
Herbicidal Activity 13 DAT [%] (EA) (Setaria viridis; 6000 g a.i./ha): 10%
Herbicidal Activity 13 DAT [%] (EA) (Setaria viridis; 16000 g a.i./ha): 45%
Herbicidal Activity 14 DAT [%] (EA) (Amaranthus retroflexus; 6000 g a.i./ha): 13%
Herbicidal Activity 14 DAT [%] (EA) (Amaranthus retroflexus; 12000 g a.i./ha): 90%
Herbicidal Activity 14 DAT [%] (EA) (Amaranthus retroflexus; 16000 g a.i./ha): 93%
Herbicidal Activity 13 DAT [%] (EA) (Panicum maximum; 6000 g a.i./ha): 20%
Herbicidal Activity 13 DAT [%] (EA) (Panicum maximum; 16000 g a.i./ha): 50%
Herbicidal Activity 14 DAT [%] (EA) (Chenopodium album [4]; 6000 g a.i./ha): 20%
Herbicidal Activity 14 DAT [%] (EA) (Chenopodium album [4]; 12000 g a.i./ha): 88%
Herbicidal Activity 14 DAT [%] (EA) (Chenopodium album [4]; 16000 g a.i./ha): 97%
Herbicidal Activity 13 DAT [%] (EA) (Zea mays; 6000 g a.i./ha): 38%
Herbicidal Activity 13 DAT [%] (EA) (Zea mays; 16000 g a.i./ha): 65%
Herbicidal Activity 14 DAT [%] (EA) (Abuthilon theophrasti; 6000 g a.i./ha): 30%
Herbicidal Activity 14 DAT [%] (EA) (Abuthilon theophrasti; 12000 g a.i./ha): 57%
Herbicidal Activity 14 DAT [%] (EA) (Abuthilon theophrasti; 16000 g a.i./ha): 57%
Herbicidal Activity 13 DAT [%] (EA) (Abutilon theophrasti; 6000 g a.i./ha): 45%
Herbicidal Activity 13 DAT [%] (EA) (Abutilon theophrasti; 16000 g a.i./ha): 88%

CCNc1nc(Cl)nc(NC(C)(C)C)n1 [Terbuthylazin, terbuthylazine]
Herbicidal Activity 14 DAT [%] (EA) (Echinocloa crus-galli [3]; 125 g a.i./ha): 0%
Herbicidal Activity 14 DAT [%] (EA) (Echinocloa crus-galli [3]; 250 g a.i./ha): 0%
Herbicidal Activity 14 DAT [%] (EA) (Echinocloa crus-galli [3]; 500 g a.i./ha): 0%
Herbicidal Activity 14 DAT [%] (EA) (Echinocloa crus-galli [3]; 750 g a.i./ha): 0%
Herbicidal Activity 14 DAT [%] (EA) (Amaranthus retroflexus; 125 g a.i./ha): 0%
Herbicidal Activity 14 DAT [%] (EA) (Amaranthus retroflexus; 250 g a.i./ha): 7%
Herbicidal Activity 14 DAT [%] (EA) (Amaranthus retroflexus; 500 g a.i./ha): 47%
Herbicidal Activity 14 DAT [%] (EA) (Amaranthus retroflexus; 750 g a.i./ha): 63%
Herbicidal Activity 14 DAT [%] (EA) (Chenopodium album [4]; 125 g a.i./ha): 0%
Herbicidal Activity 14 DAT [%] (EA) (Chenopodium album [4]; 250 g a.i./ha): 13%
Herbicidal Activity 14 DAT [%] (EA) (Chenopodium album [4]; 500 g a.i./ha): 67%
Herbicidal Activity 14 DAT [%] (EA) (Chenopodium album [4]; 750 g a.i./ha): 78%
Herbicidal Activity 14 DAT [%] (EA) (Abuthilon theophrasti; 125 g a.i./ha): 0%
Herbicidal Activity 14 DAT [%] (EA) (Abuthilon theophrasti; 250 g a.i./ha): 7%
Herbicidal Activity 14 DAT [%] (EA) (Abuthilon theophrasti; 500 g a.i./ha): 7%
Herbicidal Activity 14 DAT [%] (EA) (Abuthilon theophrasti; 750 g a.i./ha): 20%
